Columns and labels:
[1] = target: T1, Gastrin/cholecystokinin type B receptor (Mus musculus, UniProt P56481); assay: Evaluated for Cholecystokinin type B receptor antagonistic activity in which 20 pM [125I]BH-CCK-8S was used to label CCKB/gastrin binding sites in mouse cortical homogenates
T1 sequence (P56481 whole entry): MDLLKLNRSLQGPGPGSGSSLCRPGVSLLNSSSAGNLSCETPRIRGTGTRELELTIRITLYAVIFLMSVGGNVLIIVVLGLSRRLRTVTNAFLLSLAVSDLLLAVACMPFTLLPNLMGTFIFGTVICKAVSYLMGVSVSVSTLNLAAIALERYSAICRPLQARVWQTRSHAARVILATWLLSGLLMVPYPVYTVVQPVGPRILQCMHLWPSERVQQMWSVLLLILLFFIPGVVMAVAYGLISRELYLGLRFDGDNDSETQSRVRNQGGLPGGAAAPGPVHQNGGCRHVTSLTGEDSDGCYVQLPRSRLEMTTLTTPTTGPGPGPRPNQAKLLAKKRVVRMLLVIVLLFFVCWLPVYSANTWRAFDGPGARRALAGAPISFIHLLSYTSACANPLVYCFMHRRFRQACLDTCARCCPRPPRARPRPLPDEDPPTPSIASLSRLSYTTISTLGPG

[2] = target: T2, Gastrin/cholecystokinin type B receptor (Rattus norvegicus) (UniProt P30553); assay: Evaluated for Cholecystokinin type B receptor antagonistic activity in isolated lumen-perfused immature rat stomach; assay type: functional, tissue-based
T2 sequence (whole entry): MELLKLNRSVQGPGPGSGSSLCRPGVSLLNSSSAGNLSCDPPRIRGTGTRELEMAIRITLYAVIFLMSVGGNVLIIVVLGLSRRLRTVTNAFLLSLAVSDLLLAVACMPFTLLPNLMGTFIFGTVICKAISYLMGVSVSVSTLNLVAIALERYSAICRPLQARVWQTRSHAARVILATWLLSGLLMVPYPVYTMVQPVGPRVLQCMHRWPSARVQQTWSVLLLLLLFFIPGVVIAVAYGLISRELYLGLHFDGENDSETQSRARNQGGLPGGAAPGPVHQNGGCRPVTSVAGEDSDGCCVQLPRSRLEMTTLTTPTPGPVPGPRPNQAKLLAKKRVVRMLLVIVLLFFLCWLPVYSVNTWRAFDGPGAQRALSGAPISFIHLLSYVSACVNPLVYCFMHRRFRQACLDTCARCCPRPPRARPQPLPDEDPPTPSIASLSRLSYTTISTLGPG

SMILES | IC50 [1] [nM] | pKB [2]
O=C(O)c1cc(NC(=O)C2Cc3ccccc3CCCCN2C(=O)c2cc3[nH]cnc3cc2C(=O)NCC23CC4CC(CC(C4)C2)C3)cc(C(=O)O)c1 (stereo not given) | 5.01 | 9.13
O=C(O)c1cc(NC(=O)C2Cc3ccccc3CCCN2C(=O)c2cc3[nH]cnc3cc2C(=O)NCC23CC4CC(CC(C4)C2)C3)cc(C(=O)O)c1 (stereo not given) | 224 | 7.93

The remaining compounds from weak to strong by IC50 [1], led by results:

IC50 [1] [nM] | pKB [2] | SMILES
234 | 7.66 | O=C(O)c1cc(NC(=O)C2Cc3ccccc3CCN2C(=O)c2cc3[nH]cnc3cc2C(=O)NCC23CC4CC(CC(C4)C2)C3)cc(C(=O)O)c1 (stereo not given)
178 | 7.64 | O=C(O)c1cc(NC(=O)C2Cc3ccccc3CN2C(=O)c2cc3[nH]cnc3cc2C(=O)NCC23CC4CC(CC(C4)C2)C3)cc(C(=O)O)c1 (stereo not given)
5.25 | 9.08 | O=C(O)c1cc(NC(=O)[C@H](Cc2ccccc2)NC(=O)c2cc3[nH]cnc3cc2C(=O)NCC23CC4CC(CC(C4)C2)C3)cc(C(=O)O)c1
